Assays:
[1] = system: HCV Replicon 1b; assay: HCV inhibition assay, HCV replicon 1b (Clone A or ET-lunet cells; RT-PCR or luciferase reporter); format: cell-based; settings: Hepatitis C virus, 96 h, HCV replicon 1b; 4 days incubation; read-out: Replicon 1b potency EC90
Procedure: HCV inhibition assay. Clone A or ET-lunet cells were seeded at a density of 1500 or 3000 cells per well in a 96-well plate, respectively. Test compounds serially diluted in culture medium without G418 were added to cells so that the final DMSO concentration was 0.5%. Plates were incubated at 37° C. in a 5% CO2 atmosphere for 4 days. Inhibition of HCV RNA replication was determined by real time PCR (RT-PCR) or by measuring the levels of luminescence expressed via the luciferase reporter gene encoded within the ET replicon. Briefly, for the RT-PCR assay, total RNA was extracted using the RNeasy-96 kit as recommended by the manufacturer (Qiagen, Valencia, Calif.), reversed transcribed into cDNA, and amplified using primer and probe mix for HCV 5′-NTR RNA and human ribosomal RNA (rRNA) in a one-step RT-PCR reaction as described previously (50). A relative quantification method was used to determine the extent of inhibition. The threshold cycle (Ct) of rRNA was subtracted from the Ct of HCV RNA (ΔCt). The average ΔCt of the DMSO cell controls was then subtracted from the ΔCt of the compound treated sample (ΔΔCt). Percent inhibition was determined by using the following equation: %=(1−(2^−ΔΔC^t))×100. For the luciferase-based replicon assay, luminescence was measured by using a Victor3 plate reader (Perkin-Elmer, Boston, Mass.) following the addition of Bright-Glo reagent as recommended by the manufacturer (Promega, Madison, Wis.). Percent inhibition of HCV replication was determined by comparing the change in luminescence of the drug treated wells versus the DMSO cell controls. EC50 and EC90 values, the concentrations at which 50% and 90% inhibition were achieved, were determined using the GraphPad Prism software (San Diego, Calif.).

[2] = Cell cytotoxicity assay (MTS), CC90 as reported in Table 1, cell line not stated; format: cell-based; settings: human; cell line not given
Procedure: Cell cytotoxicity assays. Each compound (serially diluted from 100 μM) was added to Huh7 (2×10^3 cells/well), HepG2 (2×10^3 cells/well), BxPC3 (2×10^3 cells/well), or CEM (5×10^3 cells/well) cells and allowed to incubate for 8 days at 37° C. A medium only control was used to determine the minimum absorbance value […]. At the end of the growth period, MTS dye from the CellTiter 96 Aqueous One Solution Cell Proliferation Assay kit (Promega) was added to each well and the plate was incubated for an additional 2 hours. The absorbance at 490 nm was read with a Victor3 plate reader (Perkin Elmer) using the medium only control wells as blanks. The 90% inhibition value (CC90) was determined by comparing the absorbance in wells containing cells and test compound to untreated cell control wells.

Row | SMILES | EC90 [1] | CC90 at 8 days [2]
1 | CC(C)C[C@H]1CN(C(=O)c2cc(-c3ccc(C(C)(C)C)cc3)on2)[C@@H](CC(C)C)C(=O)N1 [Compound 132] | 4330 nM | > 10000 nM
2 | CC(C)C[C@H]1CN(C(=O)c2cc(-c3ccc(F)cc3F)on2)[C@@H](CC(C)C)C(=O)N1 [Compound 133] | 600 nM | > 10000 nM
3 | CC(C)C[C@H]1CN(C(=O)c2cc(-c3ccc(Cl)c(F)c3)on2)[C@@H](CC(C)C)C(=O)N1 [Compound 134] | 890 nM | > 10000 nM
4 | CC(C)C[C@H]1CN(C(=O)c2cc(-c3ccc(Br)cc3)on2)[C@@H](CC(C)C)C(=O)N1 [Compound 135] | 470 nM | > 10000 nM
5 | CC(C)C[C@H]1CN(C(=O)c2cc(-c3ccc(C#N)cc3)on2)[C@@H](CC(C)C)C(=O)N1 [Compound 136] | 1530 nM | > 10000 nM
6 | CC(C)C[C@H]1C(=O)N[C@@H](C2CCCC2)CN1C(=O)c1cc(-c2ccc(C#N)cc2)on1 [Compound 137] | 800 nM | > 10000 nM
7 | CC(C)C[C@H]1CN(C(=O)c2cc(-c3cccc(OC(F)(F)F)c3)on2)[C@@H](CC(C)C)C(=O)N1 [Compound 138] | 7040 nM | > 10000 nM
8 | CC(C)C[C@H]1CN(C(=O)c2cc(-c3ccc(C(=O)N(C)C)cc3)on2)[C@@H](CC(C)C)C(=O)N1 [Compound 139] | > 10000 nM | > 10000 nM
9 | CC(C)C[C@H]1CN(C(=O)c2cc(-c3ccc(N(C)C)cc3)on2)[C@@H](CC(C)C)C(=O)N1 [Compound 140] | > 10000 nM | > 10000 nM
10 | CC(C)C[C@H]1CN(C(=O)c2cc(-c3ccc(F)c(Cl)c3)on2)[C@@H](CC(C)C)C(=O)N1 [Compound 141] | 1780 nM | > 10000 nM
11 | CC(C)C[C@H]1CN(C(=O)c2cc(-c3ccccc3F)on2)[C@@H](CC(C)C)C(=O)N1 [Compound 142] | 2010 nM | > 10000 nM
12 | CC(C)C[C@H]1CN(C(=O)c2cc(-c3ccc(Cl)cc3F)on2)[C@@H](CC(C)C)C(=O)N1 [Compound 143] | 1210 nM | > 10000 nM
13 | CC(C)C[C@H]1CN(C(=O)c2cc(-c3ccc(F)cc3)no2)[C@@H](CC(C)C)C(=O)N1 [Compound 144] | 330 nM | > 10000 nM
14 | CC(C)C[C@H]1C(=O)N[C@@H](c2ccccc2)CN1C(=O)c1cc(-c2ccc(F)cc2)no1 [Compound 145] | 230 nM | > 10000 nM
15 | CC(C)C[C@H]1C(=O)N[C@@H](C(C)C)CN1C(=O)c1cc(-c2ccc(F)cc2)no1 [Compound 146] | 730 nM | > 10000 nM
16 | CSC[C@H]1CN(C(=O)c2cc(-c3ccc(F)cc3)no2)[C@@H](CC(C)C)C(=O)N1 [Compound 147] | 1270 nM | > 10000 nM
17 | CC(C)C[C@H]1CN(C(=O)c2nc(-c3ccc(F)cc3)no2)[C@@H](CC(C)C)C(=O)N1 [Compound 148] | 370 nM | > 10000 nM
18 | CCC[C@H]1CN(C(=O)c2nc(-c3ccc(F)cc3)no2)[C@@H](CC(C)C)C(=O)N1 [Compound 149] | 50 nM | > 10000 nM
19 | CCC[C@H]1CN(C(=O)c2nc(-c3ccccc3)no2)[C@@H](CC(C)C)C(=O)N1 [Compound 150] | 590 nM | > 10000 nM
20 | CC(C)C[C@H]1C(=O)N[C@@H](c2ccccc2)CN1C(=O)c1nc(-c2ccc(F)cc2)no1 [Compound 151] | 40 nM | > 10000 nM
21 | CC(C)C[C@H]1C(=O)N[C@@H](C2CCCC2)CN1C(=O)c1nc(-c2ccc(F)cc2)no1 [Compound 152] | 110 nM | > 10000 nM
22 | CC(C)C[C@H]1C(=O)N[C@@H](C(C)C)CN1C(=O)c1nc(-c2ccc(F)cc2)no1 [Compound 153] | 220 nM | > 10000 nM
23 | CSC[C@H]1CN(C(=O)c2nc(-c3ccc(F)cc3)no2)[C@@H](CC(C)C)C(=O)N1 [Compound 154] | 780 nM | > 10000 nM
24 | CC(C)C[C@H]1CN(C(=O)c2cc(-c3ccc([N+](=O)[O-])cc3)on2)[C@@H](CC(C)C)C(=O)N1 [Compound 155] | 2600 nM | > 10000 nM
25 | CC(C)C[C@H]1C(=O)N[C@@H](C2CCCCC2)CN1C(=O)c1cc(-c2ccc(F)cc2F)on1 [Compound 156] | 1150 nM | > 10000 nM

Row | SMILES | EC90 [1] | CC90 at 8 days [2]
26 | CC(C)C[C@H]1C(=O)N[C@@H](C2CCCC2)CN1C(=O)c1cc(-c2ccc(F)cc2F)on1 [Compound 157] | 490 nM | > 10000 nM
27 | CCC[C@H]1CN(C(=O)c2cc(-c3ccc(Cl)c(F)c3)on2)[C@@H](CC(C)C)C(=O)N1 [Compound 158] | 440 nM | > 10000 nM
28 | CC(C)C[C@H]1C(=O)N[C@@H](C2CCCCC2)CN1C(=O)c1cc(-c2ccc(Cl)c(F)c2)on1 [Compound 159] | 710 nM | > 10000 nM
29 | CC(C)C[C@H]1C(=O)N[C@@H](C2CCCC2)CN1C(=O)c1cc(-c2ccc(Cl)c(F)c2)on1 [Compound 160] | 410 nM | > 10000 nM
30 | CCC[C@H]1CN(C(=O)c2cc(-c3ccc(F)cc3)on2)[C@@H](CC(C)C)C(=O)N1 [Compound 161] | 70 nM | > 10000 nM
31 | CC(C)C[C@H]1C(=O)N[C@@H](C2CCCCC2)CN1C(=O)c1cc(-c2ccc(F)cc2)on1 [Compound 162] | 1800 nM | > 10000 nM
32 | CC(C)C[C@H]1C(=O)N[C@@H](C2CCCC2)CN1C(=O)c1cc(-c2ccc(F)cc2)on1 [Compound 163] | 90 nM | > 10000 nM
33 | CCC[C@H]1CN(C(=O)c2cc(-c3ccc(F)cc3F)on2)[C@@H](CC(C)C)C(=O)N1 [Compound 165] | 340 nM | > 10000 nM
34 | CC(C)C[C@H]1C(=O)N[C@@H](CC2CC2)CN1C(=O)c1cc(-c2ccc(Cl)cc2)on1 [Compound 166] | 360 nM | > 10000 nM
35 | CC(C)C[C@H]1C(=O)N[C@@H](CC2CC2)CN1C(=O)c1cc(-c2ccc(F)cc2)on1 [Compound 167] | 450 nM | > 10000 nM
36 | CC(C)C[C@H]1C(=O)N[C@@H](CC2CC2)CN1C(=O)c1cc(-c2cccs2)on1 [Compound 168] | 900 nM | > 10000 nM
37 | CCC[C@H]1CN(C(=O)c2cc(-c3cccs3)on2)[C@@H](CC(C)C)C(=O)N1 [Compound 169] | 150 nM | > 10000 nM
38 | CCC[C@H]1CN(C(=O)c2cc(-c3ccc(Cl)cc3)on2)[C@@H](CC(C)C)C(=O)N1 [Compound 170] | 50 nM | > 10000 nM
39 | CC(C)C[C@H]1C(=O)N[C@@H](C2CCCCC2)CN1C(=O)c1cc(-c2ccc(Cl)cc2)on1 [Compound 171] | 150 nM | > 10000 nM
40 | CC(C)C[C@H]1C(=O)N[C@@H](C2CCCCC2)CN1C(=O)c1cc(-c2cccs2)on1 [Compound 172] | 410 nM | > 10000 nM
41 | CC(C)C[C@H]1C(=O)N[C@@H](C2CCCC2)CN1C(=O)c1cc(-c2ccc(Cl)cc2)on1 [Compound 173] | 120 nM | > 10000 nM
42 | CC(C)C[C@H]1C(=O)N[C@@H](C2CCCC2)CN1C(=O)c1cc(-c2cccs2)on1 [Compound 174] | 250 nM | > 10000 nM
43 | CC(C)C[C@H]1C(=O)N[C@@H](C(C)C)CN1C(=O)c1cc(-c2ccc(F)cc2)on1 [Compound 175] | 170 nM | > 10000 nM
44 | CC(C)C[C@H]1CN(C(=O)c2cc(-c3ccc(S(C)(=O)=O)cc3)on2)[C@@H](CC(C)C)C(=O)N1 [Compound 176] | > 20000 nM | > 10000 nM
45 | CC(C)C[C@H]1C(=O)N[C@@H](c2ccccc2)CN1C(=O)c1cc(-c2ccc(F)cc2)on1 [Compound 178] | 50 nM | > 10000 nM
46 | CC(C)C[C@H]1CN(C(=O)c2cc(-c3ccc(OC(F)(F)F)cc3)on2)[C@@H](CC(C)C)C(=O)N1 [Compound 179] | 14900 nM | > 10000 nM
47 | CC(C)C[C@H]1C(=O)N[C@@H](C2CC2)CN1C(=O)c1cc(-c2ccc(F)cc2)on1 [Compound 180] | 600 nM | > 10000 nM
48 | CC(C)C[C@H]1C(=O)N[C@@H](C(C)C)CN1C(=O)c1cc(-c2ccc(Cl)cc2)on1 [Compound 181] | 230 nM | > 10000 nM
49 | CSC[C@H]1CN(C(=O)c2cc(-c3ccc(Cl)cc3)on2)[C@@H](CC(C)C)C(=O)N1 [Compound 182] | 550 nM | > 10000 nM

From patent US20120202794A1 (priority 2011, published 2012)
